Assays:
[1] = tested on: SiHa cells; experiment: MTT antiproliferative assay, SiHa; format: cell-based; settings: Homo sapiens, 72 h; for inhibition at 10 µM / inhibition at 30 µM: read-out: Growth inhibition (%) ± SEM
Method: (§1) The in vitro anticancer effects of the presented compounds were assessed using the standard MTT [3-(4,5-dimethylthiazol2-yl)-2,5-diphenyltetrazolium bromide] assay on the following human cancer cell lines: cervical (HeLa and SiHa), breast (MCF-7 and MDA-MB-231) and ovarian cancer (A2780). The selectivity of the tested compounds was determined on murine embryonal fibroblast cells (NIH/3T3). The utilised cell lines were purchased from the European Collection of Cell Cultures (Salisbury, UK). The cells were cultivated in Eagle’s minimal essential medium supplemented with 10% fetal bovine serum, 1% non-essential amino acids and 1% antibiotic-antimycotic complex (penicillin, streptomycin, amphotericin B) at 37 °C in a humidified atmosphere containing 5% CO2. All media and supplements were purchased from Lonza Group Ltd. (Basel, Switzerland). The cancer cells were seeded into 96-well plates (5000 cells/well) and incubated overnight, and the test compounds were applied in two different concentrations (10 µM and 30 µM) and incubated for another 72 h under cell-culturing conditions. […] After 72 h, 20 µL of the 5 mg/mL MTT solution was added to each well, and the plates were incubated for 4 h. The medium was removed, and the formazan crystals produced by the mitochondrial activity were dissolved in dimethyl sulfoxide (DMSO) via shaking at 37 °C for 30 min. The absorbances were measured at 545 nm using a microplate reader (SPECTROStar Nano, BMG Labtech, Offenburg, Germany). The reference agent was cisplatin, which is a widely used cytotoxic agent. The IC50 values were calculated using sigmoid curve fitting. Two independent experiments were performed with five parallel wells for each condition. Calculations were performed using the GraphPad Prism 9 software (GraphPad Software Inc., San Diego, CA, USA).

[2] = tested on: NIH/3T3 fibroblast cells; experiment: MTT assay on non-malignant fibroblasts (selectivity); format: cell-based, murine; settings: Mus musculus, NIH3T3; for inhibition at 10 µM: NIH/3T3, 10 μM; for inhibition at 10 µM / inhibition at 30 µM: 72 h, read-out: Growth inhibition (%) ± SEM; for inhibition at 30 µM: NIH/3T3, 30 μM
Method: as §1

[3] = tested on: HeLa cells; experiment: MTT antiproliferative assay, HeLa; format: cell-based; settings: Homo sapiens, 72 h; for inhibition at 10 µM / inhibition at 30 µM: read-out: Growth inhibition (%) ± SEM
Method: as §1

[4] = tested on: MDA-MB-231 cells; experiment: MTT antiproliferative assay, MDA-MB-231; format: cell-based; settings: Homo sapiens; for inhibition at 10 µM: MDA-MB-231, 10 μM; for inhibition at 10 µM / inhibition at 30 µM: 72 h, read-out: Growth inhibition (%) ± SEM; for inhibition at 30 µM: MDA-MB-231, 30 μM
Method: as §1

[5] = tested on: A2780 cells; experiment: MTT antiproliferative assay, A2780; format: cell-based; settings: Homo sapiens; for inhibition at 10 µM: A2780, 10 μM; for inhibition at 10 µM / inhibition at 30 µM: 72 h, read-out: Growth inhibition (%) ± SEM; for inhibition at 30 µM: A2780, 30 μM
Method: as §1

[6] = tested on: MCF-7 cells; experiment: MTT antiproliferative assay, MCF-7; format: cell-based; settings: Homo sapiens, MCF7; for inhibition at 10 µM: MCF-7, 10 μM; for inhibition at 10 µM / inhibition at 30 µM: 72 h, read-out: Growth inhibition (%) ± SEM; for inhibition at 30 µM: MCF-7, 30 μM
Method: as §1

COC(=O)[C@]1(C)CCC[C@@]2(C)[C@@H]3CC[C@@]4(CO)C[C@]3(CC[C@@H]21)C[C@H]4N[C@@H](C)c1cccc2ccccc12 [Compound 14, (4R,4aS,6aR,8R,9R,11aR,11bS)-Methyl 9-(hydroxymethyl)-4,11b-dimethyl-8-(((S)-1-(naphthalen-1-yl)ethyl)amino)tetradecahydro-6a,9-methanocyclohepta[a]naphthalene-4-carboxylate]
melting point: 151 to 157 °C
inhibition at 10 µM [1]: 34.1 ± 2.53%
inhibition at 30 µM [1]: 88.88 ± 0.87%
inhibition at 10 µM [2]: 50.4 ± 2.91%
inhibition at 30 µM [2]: 97.15 ± 0.6%
inhibition at 10 µM [3]: 24.6 ± 2.79%
inhibition at 30 µM [3]: 95.1 ± 1.6%
inhibition at 10 µM [4]: 53.2 ± 2.44%
inhibition at 30 µM [4]: 95 ± 1.24%
inhibition at 10 µM [5]: 93.3 ± 1.99%
inhibition at 30 µM [5]: 99.57 ± 0.35%
inhibition at 10 µM [6]: 78.9 ± 4.11%
inhibition at 30 µM [6]: 97.44 ± 0.53%

COC(=O)C1(C)CCCC2(C)C3CCC4(CN)CC3(CCC12)CC4O [Compound 31, (4. R,4aS,6aR,8R,9S,11aR,11bS)-Methyl 9-(aminomethyl)-8-hydroxy-4,11b-dimethyltetradecahydro-6a,9-methanocyclohepta[a]naphthalene-4-carboxylate]
melting point: 64 to 68 °C
inhibition at 10 µM [1]: < 20%
inhibition at 30 µM [1]: 95.68 ± 0.81%
inhibition at 10 µM [2]: < 20%
inhibition at 30 µM [2]: 97.62 ± 0.71%
inhibition at 10 µM [3]: < 20%
inhibition at 30 µM [3]: 96.02 ± 0.89%
inhibition at 10 µM [4]: 49.5 ± 3.47%
inhibition at 30 µM [4]: 96.82 ± 0.65%
inhibition at 10 µM [5]: 37.3 ± 1.04%
inhibition at 30 µM [5]: 97.52 ± 0.8%
inhibition at 10 µM [6]: 72.7 ± 3.15%
inhibition at 30 µM [6]: 99.42 ± 0.23%

COC(=O)[C@]1(C)CCC[C@@]2(C)[C@@H]3CC[C@@]4(CN[C@@H](C)c5ccc6ccccc6c5)C[C@]3(CC[C@@H]21)C[C@H]4O [Compound 30, (4R,4aS,6aR,8R,9S,11aR,11bS)-Methyl 8-hydroxy-4,11b-dimethyl-9-((((S)-1-(naphthalen-2-yl)ethyl)amino)methyl)tetradecahydro-6a,9-methanocyclohepta[a]naphthalene-4-carboxylate]
melting point: 102 to 106 °C
inhibition at 10 µM [1]: < 20%
inhibition at 30 µM [1]: 101.4 ± 0.6%
inhibition at 10 µM [2]: 21.5 ± 0.48%
inhibition at 30 µM [2]: 100.7 ± 0.2%
inhibition at 10 µM [3]: 40.8 ± 0.99%
inhibition at 30 µM [3]: 94.51 ± 0.19%
inhibition at 10 µM [4]: 50.7 ± 3.21%
inhibition at 30 µM [4]: 98.7 ± 0.49%
inhibition at 10 µM [5]: 33.1 ± 1.23%
inhibition at 30 µM [5]: 99.71 ± 0.27%
inhibition at 10 µM [6]: 79.5 ± 1.01%
inhibition at 30 µM [6]: 95.63 ± 0.55%

COC(=O)[C@]1(C)CCC[C@@]2(C)[C@@H]3CC[C@@]4(CO)C[C@]3(CC[C@@H]21)C[C@H]4N[C@H](C)c1ccc2ccccc2c1 [Compound 17, (4R,4aS,6aR,8R,9R,11aR,11bS)-Methyl 9-(hydroxymethyl)-4,11b-dimethyl-8-(((R)-1-(naphthalen-2-yl)ethyl)amino)tetradecahydro-6a,9-methanocyclohepta[a]naphthalene-4-carboxylate]
melting point: 150 to 153 °C
inhibition at 10 µM [1]: 83.3 ± 1.58%
inhibition at 30 µM [1]: 86.7 ± 1.74%
IC50 ([1]; read-out: calculated IC50): 5.37 µM
inhibition at 10 µM [2]: 20.5 ± 1.7%
inhibition at 30 µM [2]: 96.54 ± 0.62%
IC50 ([2]; NIH/3T3, 72 h, read-out: calculated IC50): 8.7 µM
inhibition at 10 µM [3]: 90.5 ± 1.34%
inhibition at 30 µM [3]: 93.5 ± 2.5%
IC50 ([3]; read-out: calculated IC50): 3.51 µM
IC50 ([4]; MDA-MB-231, 72 h, read-out: calculated IC50): 5.62 µM
inhibition at 10 µM [4]: 91.5 ± 1.24%
inhibition at 30 µM [4]: 95.03 ± 0.91%
IC50 ([5]; A2780, 72 h, read-out: calculated IC50): 4.06 µM
inhibition at 10 µM [5]: 100.6 ± 0.76%
inhibition at 30 µM [5]: 100 ± 0.91%
inhibition at 10 µM [6]: 86.3 ± 2.86%
inhibition at 30 µM [6]: 97.42 ± 0.71%
IC50 ([6]; MCF-7, 72 h, read-out: calculated IC50): 2.47 µM

COC(=O)[C@]1(C)CCC[C@@]2(C)[C@@H]3CC[C@@]4(Cn5cc(Cc6ccccc6)nn5)C[C@]3(CC[C@@H]21)C[C@H]4O [Compound 36, (4R,4aS,6aR,8R,9S,11aR,11bS)-Methyl 9-((4-benzyl-1H-1,2,3-triazol-1-yl)methyl)-8-hydroxy-4,11b-dimethyltetradecahydro-6a,9-methanocyclohepta[a]naphthalene-4-carboxylate]
melting point: 112 to 114 °C
inhibition at 10 µM [1]: < 20%
inhibition at 30 µM [1]: 79.4 ± 3.17%
inhibition at 10 µM [2]: < 20%
inhibition at 30 µM [2]: 92.91 ± 0.87%
inhibition at 10 µM [3]: < 20%
inhibition at 30 µM [3]: 89.32 ± 0.63%
inhibition at 10 µM [4]: < 20%
inhibition at 30 µM [4]: 91.38 ± 0.65%
inhibition at 10 µM [5]: 29.3 ± 1.68%
inhibition at 30 µM [5]: 96.31 ± 0.53%
inhibition at 10 µM [6]: 45.9 ± 3.4%
inhibition at 30 µM [6]: 91.8 ± 0.74%

CC[C@@H](N[C@@H]1C[C@]23CC[C@H]4[C@@](C)(CCC[C@@]4(C)C(=O)OC)[C@@H]2CC[C@@]1(CO)C3)c1ccccc1 [Compound 12, (4R,4aS,6aR,8R,9R,11aR,11bS)-Methyl 9-(hydroxymethyl)-4,11b-dimethyl-8-(((R)-1-phenylpropyl)amino)tetradecahydro-6a,9-methanocyclohepta[a]naphthalene-4-carboxylate]
melting point: 174 to 176 °C
inhibition at 10 µM [1]: < 20%
inhibition at 30 µM [1]: 82.4 ± 2.09%
inhibition at 10 µM [2]: 29.2 ± 1.33%
inhibition at 30 µM [2]: 95.53 ± 0.49%
inhibition at 10 µM [3]: < 20%
inhibition at 30 µM [3]: 90.8 ± 3.71%
inhibition at 10 µM [4]: < 20%
inhibition at 30 µM [4]: 91.6 ± 2.36%
inhibition at 10 µM [5]: 64.7 ± 1.95%
inhibition at 30 µM [5]: 98.32 ± 0.23%
inhibition at 10 µM [6]: 48.6 ± 0.5%
inhibition at 30 µM [6]: 92.3 ± 2.89%

COC(=O)[C@]1(C)CCC[C@@]2(C)[C@@H]3CC[C@@]4(Cn5cc(Cc6ccccc6)nn5)C[C@]3(CC[C@@H]21)CC4=O [Compound 34, (4R,4aS,6aR,9S,11aR,11bS)-Methyl 9-((4-benzyl-1H-1,2,3-triazol-1-yl)methyl)-4,11b-dimethyl-8-oxotetradecahydro-6a,9-methanocyclohepta[a]naphthalene-4-carboxylate]
melting point: 172 to 176 °C
inhibition at 10 µM [1]: < 20%
inhibition at 30 µM [1]: 58.8 ± 2.24%
inhibition at 10 µM [2]: < 20%
inhibition at 30 µM [2]: 72.5 ± 0.96%
inhibition at 10 µM [3]: < 20%
inhibition at 30 µM [3]: 75.2 ± 1.26%
inhibition at 10 µM [4]: < 20%
inhibition at 30 µM [4]: 50.1 ± 2.41%
inhibition at 10 µM [5]: 31.8 ± 1.6%
inhibition at 30 µM [5]: 89.59 ± 0.45%
inhibition at 10 µM [6]: 37.5 ± 2.1%
inhibition at 30 µM [6]: 81.3 ± 2.02%

COC(=O)[C@]1(C)CCC[C@@]2(C)[C@@H]3CC[C@@]4(Cn5cc(-c6ccccc6)nn5)C[C@]3(CC[C@@H]21)CC4=O [Compound 33, (4R,4aS,6aR,9S,11aR,11bS)-Methyl 4,11b-dimethyl-8-oxo-9-((4-phenyl-1H-1,2,3-triazol-1-yl)methyl)tetradecahydro-6a,9-methanocyclohepta[a]naphthalene-4-carboxylate]
melting point: 137 to 140 °C
inhibition at 10 µM [1]: < 20%
inhibition at 30 µM [1]: < 20%
inhibition at 10 µM [2]: 54.5 ± 1.93%
inhibition at 30 µM [2]: 78.9 ± 2.52%
inhibition at 10 µM [3]: < 20%
inhibition at 30 µM [3]: 23.9 ± 5.01%
inhibition at 10 µM [4]: < 20%
inhibition at 30 µM [4]: < 20%
inhibition at 10 µM [5]: 41.1 ± 1.23%
inhibition at 30 µM [5]: 51.5 ± 1.41%
inhibition at 10 µM [6]: 57.1 ± 2.13%
inhibition at 30 µM [6]: 60.3 ± 3.65%

COC(=O)[C@]1(C)CCC[C@@]2(C)[C@@H]3CC[C@@]4(Cn5cc(-c6ccccc6)nn5)C[C@]3(CC[C@@H]21)C[C@H]4O [Compound 35, (4R,4aS,6aR,8R,9S,11aR,11bS)-Methyl 8-hydroxy-4,11b-dimethyl-9-((4-phenyl-1H-1,2,3-triazol-1-yl)methyl)tetradecahydro-6a,9-methanocyclohepta[a]naphthalene-4-carboxylate]
melting point: 154 to 156 °C
inhibition at 10 µM [1]: < 20%
inhibition at 30 µM [1]: 81.4 ± 2.84%
inhibition at 10 µM [2]: 54.8 ± 1.4%
inhibition at 30 µM [2]: 93 ± 1.01%
inhibition at 10 µM [3]: < 20%
inhibition at 30 µM [3]: 88.11 ± 0.75%
inhibition at 10 µM [4]: < 20%
inhibition at 30 µM [4]: 92.44 ± 0.59%
inhibition at 10 µM [5]: 43.2 ± 1.63%
inhibition at 30 µM [5]: 97.37 ± 0.38%
inhibition at 10 µM [6]: 70 ± 3.11%
inhibition at 30 µM [6]: 88.79 ± 0.44%

Reference: publication PMC10745768, “Stereoselective Synthesis and Antiproliferative Activity of Steviol-Based Diterpene 1,3-Aminoalcohol Regioisomers” (Molecules, 2023)
